Tests used:
SKM-1 cells = assay: Antiproliferative activity, CCK-8, SKM-1; format: cell-based, human
Method: (§1) The tumor cells used were purchased from commercial cell banks (HCT116 purchased from ATCC, SKM 1 purchased from JCRB). The growth inhibition of cells was detected using the CCK-8 method. The specific steps were as follows. Cells in the logarithmic growth phase were seeded into a 96 well culture plate at an appropriate density, with 90 μL/well. After overnight cultivation, different concentrations of drugs were added for treatment for 72 h, with each concentration in triplicate, and corresponding concentration of vehicle control and cell-free blank wells were also set. After the treatment, 10 μL of CCK-8 was added to each well and the plate was incubated in an incubator for 2-4 hours, and the optical density (OD value) at a wavelength of 450 nm was measured using a SpectraMax 190 microplate reader. […] The experiment was repeated twice, and the mean value and SD were calculated.
With reference to HCT-116 cell proliferation inhibition test method, the inhibitory activity of the compounds on the proliferation of human myelodysplastic syndrome cell SKM-1 was tested.

HCT-116 cells = assay: Antiproliferative activity, CCK-8, HCT-116; format: cell-based, human
Method: as §1

HDAC10 = HDAC10 (Homo sapiens (Human), UniProt Q969S8); assay: HDAC subtype inhibitory activity (HTRF), HDAC10; format: biochemical
Method: (§2) Human recombinant HDAC family proteins with His and GST tags were expressed using insect baculovirus expression system, and a biologically active HDAC family recombinant protein was obtained through Ni affinity column protein purification. HTRF detection method was used with H3(1-21) K9Ac biotin as the substrate. […] Briefly, 20 μl of the activity testing system included the HDAC substrate (0.2 μM. 4 μl), the Human Recombinant Protein HDAC (2-5 ng)/μl.

HDAC6 = HDAC6 (Homo sapiens (Human), UniProt Q9UBN7); assay: In vitro histone deacetylase activity assay (HTRF), HDAC6; format: biochemical; details: H3(1-21) K9Ac biotin substrate
Method: as §2

HDAC8 = HDAC8 (Homo sapiens (Human), UniProt Q9BY41); assay: HDAC subtype inhibitory activity (HTRF), HDAC8; format: biochemical
Method: as §2

HDAC3 = HDAC3 (Homo sapiens (Human), UniProt O15379); assay: HDAC subtype inhibitory activity (HTRF), HDAC3; format: biochemical
Method: as §2

HDAC1 = HDAC1 (Homo sapiens (Human), UniProt Q13547); assay: In vitro histone deacetylase activity assay (HTRF), HDAC1; format: biochemical; details: H3(1-21) K9Ac biotin substrate
Method: as §2

HDAC2 = HDAC2 (Homo sapiens (Human), UniProt Q92769); assay: HDAC subtype inhibitory activity (HTRF), HDAC2; format: biochemical
Method: as §2

HDAC6, sequence (Q9UBN7 whole entry): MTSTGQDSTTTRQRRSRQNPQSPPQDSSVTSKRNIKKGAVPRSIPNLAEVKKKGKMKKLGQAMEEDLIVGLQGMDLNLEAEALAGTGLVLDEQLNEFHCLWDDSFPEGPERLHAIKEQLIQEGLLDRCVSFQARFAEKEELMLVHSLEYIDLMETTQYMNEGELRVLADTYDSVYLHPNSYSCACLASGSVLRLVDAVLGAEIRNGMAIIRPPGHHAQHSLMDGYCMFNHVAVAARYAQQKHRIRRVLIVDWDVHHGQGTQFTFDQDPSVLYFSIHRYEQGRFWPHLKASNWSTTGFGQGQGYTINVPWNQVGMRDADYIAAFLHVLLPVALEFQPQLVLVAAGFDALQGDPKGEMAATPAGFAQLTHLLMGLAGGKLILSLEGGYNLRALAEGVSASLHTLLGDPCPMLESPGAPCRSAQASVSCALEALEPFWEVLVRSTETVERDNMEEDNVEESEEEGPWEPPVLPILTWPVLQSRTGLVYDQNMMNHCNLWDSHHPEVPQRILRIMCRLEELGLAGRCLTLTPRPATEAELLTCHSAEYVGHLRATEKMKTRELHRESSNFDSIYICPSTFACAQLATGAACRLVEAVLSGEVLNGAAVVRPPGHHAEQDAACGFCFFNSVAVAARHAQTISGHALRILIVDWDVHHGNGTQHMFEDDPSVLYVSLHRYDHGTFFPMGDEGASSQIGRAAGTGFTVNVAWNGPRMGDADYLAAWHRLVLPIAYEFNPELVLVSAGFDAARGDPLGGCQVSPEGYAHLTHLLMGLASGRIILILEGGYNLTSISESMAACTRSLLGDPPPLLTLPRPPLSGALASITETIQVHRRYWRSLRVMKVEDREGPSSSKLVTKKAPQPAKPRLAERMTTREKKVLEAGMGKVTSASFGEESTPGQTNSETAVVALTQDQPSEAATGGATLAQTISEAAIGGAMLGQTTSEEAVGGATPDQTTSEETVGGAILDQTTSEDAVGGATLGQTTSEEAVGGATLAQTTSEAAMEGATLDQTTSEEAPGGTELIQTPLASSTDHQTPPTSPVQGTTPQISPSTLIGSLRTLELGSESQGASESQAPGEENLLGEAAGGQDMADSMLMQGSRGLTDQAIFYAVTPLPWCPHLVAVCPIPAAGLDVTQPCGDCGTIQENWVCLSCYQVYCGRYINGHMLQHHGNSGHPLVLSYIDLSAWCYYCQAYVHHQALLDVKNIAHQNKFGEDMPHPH
HDAC1, sequence (Q13547 whole entry): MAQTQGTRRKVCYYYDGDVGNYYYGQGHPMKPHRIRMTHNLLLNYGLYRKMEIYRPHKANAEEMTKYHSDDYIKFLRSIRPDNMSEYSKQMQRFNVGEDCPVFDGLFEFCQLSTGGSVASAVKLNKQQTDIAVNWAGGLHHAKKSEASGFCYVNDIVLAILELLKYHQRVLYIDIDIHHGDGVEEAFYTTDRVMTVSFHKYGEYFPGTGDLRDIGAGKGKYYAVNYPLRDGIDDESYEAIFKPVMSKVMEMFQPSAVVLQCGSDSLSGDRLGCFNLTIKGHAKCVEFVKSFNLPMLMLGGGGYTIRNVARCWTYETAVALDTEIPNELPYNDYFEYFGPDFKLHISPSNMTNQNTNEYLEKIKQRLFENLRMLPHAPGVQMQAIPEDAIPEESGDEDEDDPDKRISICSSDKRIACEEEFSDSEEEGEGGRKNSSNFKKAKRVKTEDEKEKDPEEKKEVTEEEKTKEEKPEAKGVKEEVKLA
HDAC3, sequence (O15379 whole entry): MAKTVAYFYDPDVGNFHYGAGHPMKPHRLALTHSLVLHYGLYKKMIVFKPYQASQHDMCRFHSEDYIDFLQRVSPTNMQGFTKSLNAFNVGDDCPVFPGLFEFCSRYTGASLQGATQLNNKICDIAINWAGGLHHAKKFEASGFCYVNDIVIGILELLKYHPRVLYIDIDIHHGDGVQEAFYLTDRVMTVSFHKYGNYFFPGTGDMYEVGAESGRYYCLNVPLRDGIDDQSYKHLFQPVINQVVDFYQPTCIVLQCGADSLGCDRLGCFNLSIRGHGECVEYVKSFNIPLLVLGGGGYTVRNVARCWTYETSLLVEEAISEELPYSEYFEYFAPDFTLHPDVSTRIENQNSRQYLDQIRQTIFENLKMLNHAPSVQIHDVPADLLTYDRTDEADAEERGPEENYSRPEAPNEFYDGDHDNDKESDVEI
HDAC3, sequence (Q9Y618 395-489 partner): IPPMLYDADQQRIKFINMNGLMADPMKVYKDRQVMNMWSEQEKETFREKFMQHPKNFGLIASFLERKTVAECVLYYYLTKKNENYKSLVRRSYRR
HDAC10, sequence (Q969S8 whole entry): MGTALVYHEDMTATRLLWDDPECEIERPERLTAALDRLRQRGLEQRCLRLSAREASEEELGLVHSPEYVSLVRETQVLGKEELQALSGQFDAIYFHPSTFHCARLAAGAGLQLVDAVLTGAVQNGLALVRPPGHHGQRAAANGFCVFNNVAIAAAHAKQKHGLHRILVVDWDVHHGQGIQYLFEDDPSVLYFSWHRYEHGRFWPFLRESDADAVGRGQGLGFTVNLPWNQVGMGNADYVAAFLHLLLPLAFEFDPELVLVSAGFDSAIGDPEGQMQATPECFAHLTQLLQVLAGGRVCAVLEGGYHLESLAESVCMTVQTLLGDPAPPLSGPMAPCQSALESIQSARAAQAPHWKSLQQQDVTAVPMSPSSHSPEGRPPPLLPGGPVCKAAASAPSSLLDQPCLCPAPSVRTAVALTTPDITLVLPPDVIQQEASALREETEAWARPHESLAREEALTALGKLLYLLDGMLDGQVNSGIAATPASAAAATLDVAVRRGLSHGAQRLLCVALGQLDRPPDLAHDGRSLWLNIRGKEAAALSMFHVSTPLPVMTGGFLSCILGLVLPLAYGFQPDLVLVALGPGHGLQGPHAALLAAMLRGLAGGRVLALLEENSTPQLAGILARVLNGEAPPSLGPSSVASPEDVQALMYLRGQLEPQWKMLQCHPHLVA
HDAC8, sequence (Q9BY41 whole entry): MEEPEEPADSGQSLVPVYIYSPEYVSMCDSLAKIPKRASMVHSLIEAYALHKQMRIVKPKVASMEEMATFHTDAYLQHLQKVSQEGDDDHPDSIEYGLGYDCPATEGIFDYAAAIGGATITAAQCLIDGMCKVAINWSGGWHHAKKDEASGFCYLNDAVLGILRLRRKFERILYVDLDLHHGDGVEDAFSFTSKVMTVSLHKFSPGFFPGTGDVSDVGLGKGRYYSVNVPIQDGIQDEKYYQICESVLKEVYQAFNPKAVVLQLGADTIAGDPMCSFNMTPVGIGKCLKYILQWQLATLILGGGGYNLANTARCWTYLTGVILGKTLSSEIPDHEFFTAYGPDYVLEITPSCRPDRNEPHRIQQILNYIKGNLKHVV
HDAC2, sequence (Q92769 whole entry): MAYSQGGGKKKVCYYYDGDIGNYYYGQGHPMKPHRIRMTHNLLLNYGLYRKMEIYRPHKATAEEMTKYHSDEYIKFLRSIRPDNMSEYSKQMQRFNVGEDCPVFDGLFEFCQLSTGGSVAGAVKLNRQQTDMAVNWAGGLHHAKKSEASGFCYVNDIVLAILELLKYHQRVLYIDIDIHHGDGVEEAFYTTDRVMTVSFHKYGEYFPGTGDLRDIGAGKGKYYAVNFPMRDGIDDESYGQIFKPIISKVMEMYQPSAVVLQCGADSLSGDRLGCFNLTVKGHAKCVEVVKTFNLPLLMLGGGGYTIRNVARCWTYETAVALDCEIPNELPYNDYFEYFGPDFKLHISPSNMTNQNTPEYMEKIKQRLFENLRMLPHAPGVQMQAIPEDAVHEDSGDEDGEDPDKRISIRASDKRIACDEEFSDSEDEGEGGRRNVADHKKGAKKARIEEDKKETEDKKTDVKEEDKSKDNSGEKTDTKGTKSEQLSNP

Row | SMILES | IC50 (SKM-1 cells; Homo sapiens, SKM-1, 72 h) [nM] | IC50 (HCT-116 cells; Homo sapiens, HCT-116, 72 h) [nM] | IC50 (HDAC10) [nM] | IC50 (HDAC6) [nM] | IC50 (HDAC8) [nM] | IC50 (HDAC3) [nM] | IC50 (HDAC1) [nM] | IC50 (HDAC2) [nM] | IC50 (SKM-1 cells; 72 h) [nM] | IC50 (HCT-116 cells; 72 h) [nM]
1 | CC(c1ccc(C(=O)Nc2ccccc2N)cc1)n1nc(-c2ccc(CN(C)C)cc2)ccc1=O (racemic) [HYH-072 (racemate of I-2), reference compound] | 90 ± 4 | 110 ± 7 |  |  |  |  |  |  |  | 
2 | CC(c1ccc(C(=O)Nc2ccc(F)cc2N)cc1)n1nc(-c2ccc(CN(C)C)cc2)ccc1=O (racemic) [HYH-073 (racemate of I-1), reference compound] | 230 ± 10 | 380 ± 1 |  |  |  |  |  |  |  | 
3 | COc1cccc(-c2ccc(=O)n([C@@H](C)c3ccc(C(=O)Nc4ccccc4N)cc3)n2)c1 [Compound I-4] | 160 ± 1 | 230 ± 4 |  | > 10000 |  |  | 35.2 ± 4.47 |  |  | 
4 | C[C@@H](c1ccc(C(=O)Nc2ccccc2N)cc1)n1nc(-c2cnn(C)c2)ccc1=O [Compound I-5] | 200 ± 1 | 280 ± 8 |  | > 10000 |  |  | 124 ± 24.4 |  |  | 
5 | C[C@@H](c1ccc(C(=O)Nc2ccccc2N)cc1)n1nc(-c2ccncc2)ccc1=O [Compound I-6] | 240 ± 11 | 330 ± 4 |  | > 10000 |  |  | 60.5 ± 5.73 |  |  | 
6 | COc1ccc(NC(=O)c2ccc([C@H](C)n3nc(-c4ccc(CN(C)C)cc4)ccc3=O)cc2)c(N)c1 [Compound I-8] | 490 ± 16 | 870 ± 37 |  | > 10000 |  |  | 126 ± 18.3 |  |  | 
7 | C[C@@H](c1ccc(C(=O)Nc2cccc(F)c2N)cc1)n1nc(-c2ccc(CN(C)C)cc2)ccc1=O [Compound I-9] | 340 ± 13 | 500 ± 65 |  | > 10000 |  |  | 122 ± 11.1 |  |  | 
8 | C[C@@H](c1ccc(C(=O)Nc2cc(F)ccc2N)cc1)n1nc(-c2ccc(CN(C)C)cc2)ccc1=O [Compound I-12] | 100 | 140 ± 4 |  | > 10000 |  |  | 31.3 ± 3.27 |  |  | 
9 | C[C@H](c1ccc(C(=O)Nc2ccc(F)cc2N)cc1)n1nc(-c2ccc(CN(C)C)cc2)ccc1=O [I-1 (R configuration), reference compound] |  |  | > 100000 | > 10000 | > 100000 | 720 ± 196 | 375 ± 42.1 | 320 ± 48 | 1060 ± 79 | 1550 ± 94
10 | Nc1ccccc1NC(=O)c1ccc(CNC(=O)OCc2cccnc2)cc1 [MS-275, Entinostat, reference compound] | 390 | 1480 ± 8 |  |  |  |  |  |  |  | 

Further lines, results first:

Row | IC50 (SKM-1 cells; Homo sapiens, SKM-1, 72 h) [nM] | IC50 (HCT-116 cells; Homo sapiens, HCT-116, 72 h) [nM] | IC50 (HDAC10) [nM] | IC50 (HDAC6) [nM] | IC50 (HDAC8) [nM] | IC50 (HDAC3) [nM] | IC50 (HDAC1) [nM] | IC50 (HDAC2) [nM] | IC50 (SKM-1 cells; 72 h) [nM] | IC50 (HCT-116 cells; 72 h) [nM] | SMILES
11 | 550 ± 4 | 1700 ± 105 |  |  |  |  |  |  |  |  | Nc1cc(F)ccc1NC(=O)c1ccc(CNC(=O)/C=C/c2cccnc2)cc1 [Chidamide, reference compound]
12 | 60 ± 1 | 80 ± 2 | > 100000 | > 10000 | > 100000 | 390 ± 28 | 23.3 ± 1.1 | 90 ± 2 |  |  | C[C@@H](c1ccc(C(=O)Nc2ccccc2N)cc1)n1nc(-c2ccc(CN(C)C)cc2)ccc1=O [Compound I-2]
13 | 270 ± 13 | 390 ± 6 |  | > 10000 |  |  | 52.4 ± 10.2 |  |  |  | C[C@@H](c1ccc(C(=O)Nc2ccccc2N)cc1)n1nc(-c2cccc(Cl)c2)ccc1=O [Compound I-3]
14 | 210 ± 5 | 310 ± 18 |  | > 10000 |  |  | 99.5 ± 11.1 |  |  |  | C[C@@H](c1ccc(C(=O)Nc2cc(F)c(F)cc2N)cc1)n1nc(-c2ccc(CN(C)C)cc2)ccc1=O [Compound I-7]
15 |  | 400 ± 72 |  | > 10000 |  |  | 50.5 ± 13.7 |  |  |  | C[C@@H](c1ccc(C(=O)Nc2ccccc2N)cc1)n1nc(-c2ccccc2)ccc1=O [Compound I-10]
16 |  |  |  | > 10000 |  |  | 42.4 ± 0.8 |  | 270 ± 19 | 310 ± 37 | COc1ccc(N)c(NC(=O)c2ccc([C@H](C)n3nc(-c4ccc(CN(C)C)cc4)ccc3=O)cc2)c1 [Compound I-11]
17 |  |  |  | > 10000 |  |  | 44.8 ± 1.53 |  | 170 ± 2 | 220 ± 24 | Cc1ccc(N)c(NC(=O)c2ccc([C@H](C)n3nc(-c4ccc(CN(C)C)cc4)ccc3=O)cc2)c1 [Compound I-13]
